Here are results for one molecule from patent US6071902A, “Method for treating excessive aggression” (Eli Lilly and Company, priority 1997, dated 2000).

Molecules are shown by their SMILES.

One series relates to 5-HT1C receptor. The experiment in a line: pharmacological studies, 5-HT1C receptor activity.
The subject of the next series is excessive aggression. Kind of series: double-blind multicenter clinical trial, olanzapine or placebo. In kind it is in vivo, human. Conditions: patients randomized to olanzapine or placebo. The source says:
A double-blind multicenter clinical trial was designed to assess the safety and efficacy of olanzapine. Patients were randomized to olanzapine or placebo.

Series [1] can be described thus: detection of radiolabelled olanzapine in saliva. It is filed as in vivo. The procedure: For example, in the treatment of adult humans, dosages of from 5 to 20 mg per day may be used. A once a day dosage is normally sufficient, although divided doses may be administered. For treatment of extreme aggression, a dose range of from 5 to 20 mg per day is suitable.
In series [2] the test system is muscarinic cholinergic receptor. The experiment in a line: pharmacological studies, muscarinic cholinergic receptor activity.

With `Cc1cc2c(s1)Nc1ccccc1N=C2N1CCN(C)CC1` [olanzapine, 2-methyl-4-(4-methyl-1-piperazinyl)-10H-thieno[2,3-b][1,5]benzodiazepine], the “activity at the 5-HT1C receptor” value in the series on 5-HT1C receptor is on record as “active”. For the same molecule, the “efficacy in treatment of excessive aggression” value with excessive aggression is given as “can be useful for the treatment of excessive aggression”. In addition, the detection in saliva result in series [1] is recorded as “can be detected in the saliva”. Further, the “muscarinic cholinergic receptor activity” value in series [2] is reported as “has muscarinic cholinergic receptor activity”.
